Experimental data taken from patent publication US9066518B2, “Heterocyclic compounds as pesticides” (Bayer CropScience AG, priority 2009, dated 2015).

tested on: not listed separately; assay: logP determination (neutral / HCOOH); details: HCOOH (formic acid), logP (HCOOH), HCOOH

Compared with `CC(=O)c1cnn(-c2cccnc2)c1` [1-[1-(Pyridin-3-yl)-1H-pyrazol-4-yl]ethanone], `COc1ccc(-c2cnn(-c3cccnc3)c2)cc1` [Example 53] is higher in chromatographic logP: 0.76 for the first, 2.12 for the second.

Compared with `c1cnc(-c2cc[nH]n2)nc1` [2-(1H-Pyrazol-3-yl)pyrimidine], `Brc1cccc(-c2ncccn2)n1` [2-(6-Bromopyridin-2-yl)pyrimidine] is higher in chromatographic logP: 0.1 for the first, 1.3 for the second.

First: FC(F)(F)c1ccn(-c2cnn(-c3cccnc3)c2)n1 [Example 3, 1′-Pyridin-3-yl-3-trifluoromethyl-1′H-[1,4′]bipyrazolyl]
Second: FC(F)(F)c1cccc(-c2cnn(-c3cccnc3)c2)n1 [Example 4, 2-[1-(Pyridin-3-yl)-1H-pyrazol-4-yl]-6-(trifluoromethyl)pyridine]
The chromatographic logP of the first is lower: 2.27 for the first, 2.51 for the second.

Going from `FC(F)(F)c1ccnc(-n2ccc(-c3cnn(-c4cccnc4)c3)n2)n1` [Example 8, 1′-(Pyridin-3-yl)-1-[4-(trifluoromethyl)pyrimidin-2-yl]-1H,1′H-3,4′-bipyrazole] to `FC(F)(F)c1cccc(-n2ccc(-c3cnn(-c4cccnc4)c3)n2)n1` [Example 41], the chromatographic logP rises from 2.15 to 3.18.

Compared with `Clc1cccc(-c2cnn(-c3cccnc3)c2)n1` [Example 20], `N=C(NO)c1cccc(-c2cnn(-c3cccnc3)c2)n1` [Example 114] is lower in chromatographic logP: 2.05 for the first, 0.86 for the second.

Going from `FC(F)(F)c1cccc(-c2cnn(-c3cccnc3)c2)c1` [Example 52] to `c1cncc(-n2cc(-c3ccncn3)cn2)c1` [Example 113], the chromatographic logP falls from 2.99 to 0.89.

Going from `O=C1CCCN1c1cccc(-c2cnn(-c3cccnc3)c2)n1` [Example 80] to `O=C1CCCCN1c1cccc(-c2cnn(-c3cccnc3)c2)n1` [Example 81], the chromatographic logP falls from 1.86 to 1.59.

First: CC1(C)COC(c2cccc(-c3cnn(-c4cccnc4)c3)n2)OC1 [Example 104]
Second: Brc1cncc(-n2cc(-c3cccc(-c4ncccn4)n3)cn2)c1 [Example 111]
The chromatographic logP of the first is higher: 2.44 for the first, 2.17 for the second.

First: CC1(C)OB(c2cnn(-c3cncc(F)c3)c2)OC1(C)C [VI-2]
Second: CC1(C)OB(c2cnn(-c3cncnc3)c2)OC1(C)C [VI-3]
The chromatographic logP of the first is higher: 2.88 for the first, 2.1 for the second.

same assay, conditions: HCOOH, logP (HCOOH)

`CN(C)/C=C/C(=O)c1cnn(-c2cccnc2)c1` [(2E)-3-(Dimethylamino)-1-[1-(pyridin-3-yl)-1H-pyrazol-4-yl]prop-2-en-1-one] and `CON(C)C(=O)c1cnn(-c2cccnc2)c1` [N-Methoxy-N-methyl-1-(pyridin-3-yl)-1H-pyrazole-4-carboxamide] are within 0.2 log units of each other in logP: 0.93 for the first, 0.91 for the second.

With `c1cnc(-c2ccn(-c3cnn(-c4cccnc4)c3)n2)nc1` [Example 2, 1′-(Pyridin-3-yl)-3-(pyrimidin-2-yl)-1′H-1,4′-bipyrazole] the logP was 1.18.

same assay, conditions: logP (neutral), neutral

Going from `COCC(=O)c1cccc(Br)n1` [1-(6-Bromopyridin-2-yl)-2-methoxyethanone] to `CC(=O)c1cccc(-c2cnn(-c3cccnc3)c2)n1` [1-[6-(1-Pyridin-3-yl-1H-pyrazol-4-yl)pyridin-2-yl]ethanone], the logP rises from 1.73 to 1.94.

First: NC(=S)c1cccc(-c2cnn(-c3cccnc3)c2)n1 [6-(1-Pyridin-3-yl-1H-pyrazol-4-yl)pyridine-2-carbothioamide]
Second: N=C(N)c1cccc(-c2cnn(-c3cccnc3)c2)n1 [6-(1-Pyridin-3-yl-1H-pyrazol-4-yl)pyridine-2-carboxamidine]
The logP of the first is lower: 1.77 for the first, 1.99 for the second.

`Cn1cnc(-c2cccc(-c3cnn(-c4cccnc4)c3)n2)n1` [Example 6, 2-(1-Methyl-1H-[1,2,4]triazol-3-yl)-6-(1-pyridin-3-yl-1H-pyrazol-4-yl)pyridine] and `N=C(NO)c1cccc(-c2cnn(-c3cccnc3)c2)n1` [N-Hydroxy-6-(1-pyridin-3-yl-1H-pyrazol-4-ylpyridine-2-carboxamidine] are within 0.2 log units of each other in logP: 1.29 for the first, 1.23 for the second.

For `CC1(C)COC(c2cccc(-c3cnn(-c4cccnc4)c3)n2)OC1` [Example 104], the logP was 2.55.

tested on: green peach aphid (Myzus persicae); assay: Myzus test (spray treatment); assay type: in vivo; details: foliar, 144 h, application rate 500 g/ha, after 6 days, Chinese cabbage leaf discs, read-out: activity (effect in %, aphids killed)
Experimental: Solvents: 78 parts by weight of acetone
• 1.5 parts by weight of dimethylformamide Emulsifier 0.5 part by weight of alkylaryl polyglycol ether
To produce a suitable preparation of active compound, 1 part by weight of active compound is mixed with the stated amounts of solvents and emulsifier, and the concentrate is diluted with emulsifier-containing water to the desired concentration. Discs of leaves of Chinese cabbage (Brassica pekinensis) which are infested by all stages of the green peach aphid (Myzus persicae) are sprayed with an active compound preparation of the desired concentration.
After 6 days, the effect in % is determined. 100% means that all aphids have been killed; 0% means that none of the aphids has been killed.

`c1cnc(-c2ccn(-c3cnn(-c4cccnc4)c3)n2)nc1` [Example 2, 1′-(Pyridin-3-yl)-3-(pyrimidin-2-yl)-1′H-1,4′-bipyrazole] and `FC(F)(F)c1ccn(-c2cnn(-c3cccnc3)c2)n1` [Example 3, 1′-Pyridin-3-yl-3-trifluoromethyl-1′H-[1,4′]bipyrazolyl] are the same in pest or weed control at 500 g/ha: 100% for the first, 100% for the second.

Compared with `FC(F)(F)c1cccc(-c2cnn(-c3cccnc3)c2)n1` [Example 4, 2-[1-(Pyridin-3-yl)-1H-pyrazol-4-yl]-6-(trifluoromethyl)pyridine], `FC(F)(F)c1ccnc(-n2ccc(-c3cnn(-c4cccnc4)c3)n2)n1` [Example 8, 1′-(Pyridin-3-yl)-1-[4-(trifluoromethyl)pyrimidin-2-yl]-1H,1′H-3,4′-bipyrazole] is lower in pest or weed control at 500 g/ha: 100% for the first, 90% for the second.

`Cn1cnc(-c2cccc(-c3cnn(-c4cccnc4)c3)n2)n1` [Example 6, 2-(1-Methyl-1H-[1,2,4]triazol-3-yl)-6-(1-pyridin-3-yl-1H-pyrazol-4-yl)pyridine] gave a pest or weed control at 500 g/ha of 100%.
